Results: patent publication US20220241378A1, “COMPOSITIONS AND METHODS FOR TREATMENT OF CHRONIC GRANULOMATOUS DISEASE” (priority 2019, published 2022)

Tested on: C57BL/6 and p47phox-/- mice subjected to DSS-induced colitis
Assay: DSS-induced colitis in C57BL/6 and p47phox-/- mice
Type: in vivo
Description: In vivo models mimicking human pathology such as lung and gut inflammation were prepared. A model of lung inflammation was tested using C57BL/6 and p47phox-/- mice. The mice were infected with A. fumigatus intranasally and treated them with Tβ4 for 7 consecutive days starting a week after the infection. LC3-II (FIG. 1F) and DAPK1 (FIG. 1G) expression were both defective in p47phox-/- mice, but restored by Tβ4 and ablated (LC3-II) upon siTβ4 (FIGS. 10A and 10B). In addition, gut inflammation was tested using the same mouse model. Acute colitis in p47phox-/- mice was initiated by administering […] in drinking water for 7 days followed by 7 days of DSS-free autoclaved water. Subsequently, Tβ4 was therapeutically administered daily for 7 days, after DSS treatment, at the time at which mice started to lose weight. Consistent with previous findings (de Luca et al., 2014), LC3-II (FIG. 1H) and DAPK1 (FIG. 1I) expression were both defective in the colon ofp47phox-/- mice with colitis as opposed to WT mice but restored upon treatment with T134 (FIGS. 1H and 1I). DAPK1 expression in colon lysates of C57BL/6 and p47^phox-/- mice subjected to DSS-induced colitis for a week and treated intraperitoneally with 5 mg/kg Tβ4 for 7 consecutive days after DSS treatment, n=6-10 mice per group. Data are presented as mean ±SD and are representative of two experiments. Mice were categorized as Naive (uninfected or untreated mice) or None (infected mice). For immunoblotting, normalization was performed on mouse β-actin or Gapdh and corresponding pixel density or ratio is depicted. For immunofluorescence, nuclei were counterstained with DAPI. Photographs were taken with a high-resolution microscope (Olympus BX51), 40× and 100× magnification. LC3 mean fluorescence intensity (MFI) was measured with the ImageJ software. In FIGS. 1F-1H, n=6-10 mice per group. Data are presented as mean ±SD and are representative of two experiments. Naïve, uninfected or untreated mice. None, infected mice.
Dextran Sulfate Sodium (DSS) (2.5% wt/vol, […]; MP Biomedicals) was administered in drinking water ad libitum for 7 days. Fresh solution was replaced on day 3. Mice were injected with 5 mg/kg of Tβ4 every day intraperitoneally in concomitance with (days 0→7) or after (days 7→14) DSS administration. Control received the diluent alone. Weight loss, stool consistency, and faecal blood were recorded daily. Upon necropsy (7 and 14 days after DSS administration), tissues were collected for histology and cytokine analysis. Colonic sections were stained with Hematoxylin and Eosin. Colitis disease activity index was calculated daily for each mouse based on weight loss, occult blood, and stool consistency. A score of 1-4 was given for each parameter as described (McNamee et al., 2011 Interleukin 37 expression protects mice from colitis. Proc Natl Acad Sci U S A 108:16711-16716).
For immunoblotting, organs or cells were lysed in RIPA buffer. The lysate was separated in sodium dodecyl sulfate-polyacrylamide gel electrophoresis (SDS-PAGE) and transferred to a nitrocellulose membrane. The membranes were incubated with the following primary antibodies at 4 °C overnight: anti-DAPK1 (antibodies-online.com), anti-Rubicon (Cell Signaling), anti-Tβ4 and anti-NLRP3 (Abcam), anti-LC3B (Cell Signaling or Abcam). Normalization was performed by probing the membranes with mouse anti-β-actin and anti-Gapdh antibodies (Sigma-Aldrich). Normalization was performed on mouse β-actin or Gapdh and corresponding pixel density is depicted. LC3-II band density was normalized to LC3-I to obtain ratio. Chemiluminescence detection was performed with LiteAblot Plus chemiluminescence substrate (EuroClone S.p.A.), using the ChemiDocTM XRS+ Imaging System (Bio-Rad) and quantification was obtained by densitometry image analysis using Image Lab 5.1 software (Bio-Rad).
Real-time RT-PCR was performed using CFX96 Touch Real-Time PCR Detection System and SYBR Green chemistry (Bio-Rad). […]

## Thymosin β4 [Tβ4]
5 mg/kg i.p. 7 consecutive days after DSS (FIG. 2H)
  HIF-1α expression in the colon: restoration
Tβ4 5 mg/kg i.p. after DSS (FIG. 5A)
  weight change: weight regain
Tβ4 5 mg/kg i.p. after DSS (FIG. 5B)
  disease activity index scores: decreased
Tβ4 5 mg/kg i.p. after DSS (FIG. 5C)
  inflammatory pathology and tissue architecture (H&E colon histology): amelioration
Tβ4 5 mg/kg i.p. after DSS (FIG. 5D)
  NLRP3 expression in colon: decreased
Colon (FIG. 5G)
  anti-inflammatory cytokines (TGF-β): up-regulation
Colon (FIG. 5H)
  Cldn1 expression: greatly promoted
  Ocln expression: greatly promoted
Colon homogenates (FIGS. 5E and 5F)
  inflammatory cytokine levels (IL-1β, MPO, TNF-α, IL-17A): decreased
Colon homogenates of p47phox-/- mice (FIG. 3D)
  expression of angiogenesis-related genes (Angpt2, Tie2, Vegfa, Fgf2, Epo, Cxcr4): upregulation
p47phox-/- mice with colitis, 5 mg/kg i.p. 7 consecutive days after DSS (FIG. 1H)
  LC3-II expression in colon: restored
p47phox-/- mice with colitis, 5 mg/kg i.p. 7 consecutive days after DSS (FIG. 1I)
  DAPK1 expression in colon: restored
